Data: patent publication US20170363612A1, “COMPOSITIONS AND METHODS RELATING TO PROLIFERATIVE DISORDERS” (Wayne State University, priority 2014, published 2017)
Several values for one entry are separate records, joined by “and”; a condition that tells them apart may be missing. Identical values can stand only once. Entries after “also recorded” stand apart in the source; their conditions may differ. Like-named read-outs stand apart in the source and are kept apart here. Marks after values point to notes of the source that are not given here. Residues, ends and D or L forms follow the SMILES beside them. *: point of attachment. Cbz = O=C(OCc1ccccc1)*

Columns and labels:
SET Ribosome [1] = tested on: SET Ribosome
SET Ribosome [2] = test: Cobalt chloride Dose-dependent Modifier Assay, HEK293 mTRdm-fLUC#12; type: cell-based, human; conditions: 6 hours
SET Ribosome [3] = test: TR SET Assay (TPA Reference Standard) on HCT116 TR Cell Panel before and after nonadherent tumorsphere growth; type: cell-based, human; set-up: concentration or dose not given beside the values; conditions: for SET Activity (day 0): TPA Reference Standard; for SET Activity (post-growth): TPA, after 32 days tumorsphere growth and 14 days replating
SET Ribosome [4] = test: CremophorEL Cell Count Dose Response Assay, HEK293 TR cell lines; type: cell-based, human; conditions: HEK293 mTRdm-fLUC#12; 100 nM TPA
[5] = tested on: HCT116 hTRdm-fLUC#32 tumors; conditions: for Tumor Regression during Treatment, Average / Tumor Regression during Treatment, Mean: oral daily 18 days, Cape 500 mg/kg/day, anisomycin L 0.000027, H 0.000054 mg/kg/day
SET Ribosome [6] = test: TPA Reference Standard Response Modifier Assay with ribosome binding translation inhibitors, HEK293 hTRdm-fLUC#13; type: cell-based, human; conditions: with 100 nM TPA; 6 hours
[7] = tested on: HCT116 hTRdm-fLUC#32 tumors; conditions: for Tumor Regression during Treatment, Average / Tumor Regression during Treatment, Mean: oral daily 10 days, Cape 400 mg/kg/day
[8] = in vivo, cited from earlier work
SET Ribosome [9] = test: Rapamycin dose response and TPA+Taxol Modifier Assay, MCF7 TR Cell Panel
Method: To tease apart the growth and stress responses, cells were treated with varying doses of rapamycin, incubated at 37° C. for 6 hours, and assayed for fLuc activity.
In other studies, the effects of different rapamycin concentrations were measured in combination with the TPA+Taxol Reference Standard response in the MCF7 derived cell lines that express the fLuc reporter either constitutively (CMV lines) or as a part of the TR Expression Cassette (hTR and mTR lines). […] Cells were treated with 100 nM TPA, 500 nM paclitaxel, and varying concentrations of rapamycin, incubated at 37° C. for 6 hours, and assayed for fLuc activity.
Select members of the MCF7 TR Cell Panel were plated into 96-well microtiter plates and processed as described for a Cell Count Dose-dependent Modifier protocol. Rapamycin concentrations were tested for an ability to alter the Reference Standard responses produced by a 100 nM TPA/500 nM paclitaxel combination. Rapamycin was applied at doses ranging from 1 nM to 1 μM concentrations. All dilutions were prepared in complete growth media. Cells were incubated for 6 hrs, processed, and assayed for luciferase activity as described.

SET Ribosome [10] = type: in vivo, nude mice; conditions: individual animals; for % Induction: post- vs pre-treatment
[11] = tested on: HCT116 hTRdm-fLUC#32 tumors; type: in vivo, nude mice; conditions: cremophorEL 0.5 mg/kg/day Q2Dx5; cyclophosphamide 120 mg/kg/day Q4Dx3; IV
[12] = single listed concentration: dbcAMP 5 mM, TPA 100 nM, Paclitaxel 500 nM, MG132 50 uM, Colchicine 1 uM, MRA 150 nM, Bortezomib 50 nM
[13] = MCF7 TR Class 3/4 lines, 100 nM TPA + 500 nM paclitaxel, 6 hours

CC(=O)O[C@H]1C(=O)[C@@]2(C)[C@H]([C@H](OC(=O)c3ccccc3)[C@]3(O)C[C@H](OC(=O)[C@H](O)[C@@H](NC(=O)c4ccccc4)c4ccccc4)C(C)=C1C3(C)C)[C@]1(OC(C)=O)CO[C@@H]1C[C@@H]2O [Paclitaxel, 5β,20-epoxy-1,2α,4,7β,10β,13α-hexahydroxytax-1-1-en-9-14,10-diacetate 2-benzoate 13-ester with (2R,3S)-N-benzoyl-3-phenylisoserine]
SET Response (SET Ribosome [1]; [12]): Agonist

COc1cc2c(c(OC)c1OC)-c1ccc(OC)c(=O)cc1[C@@H](NC(C)=O)CC2 [Colchicine, N-[(7S)-1,2,3,10-tetramethoxy-9-oxo-5,6,7,9-tetrahydrobenzo[a]heptalen-7-yl]acetamide]
SET Response (SET Ribosome [1]): Agonist

[Cl-].[Cl-].[Co+2] [cobalt(II) chloride]
doses repressing background SET Ribosome activity (SET Ribosome [2]; cobalt applied alone): > 50 µM | doses inhibiting TPA SET activation (SET Ribosome [2]; with 100 nM TPA): > 200 µM | doses inhibiting TPA SET activation (SET Ribosome [2]; with 100 nM TPA, listed as CoCl2): ≥ 200 µM | IC50 (SET Ribosome [2]; with 100 nM TPA, read-out: IC50, inhibition of SET activity in cells treated with TPA): ~1000 µM | doses inhibiting SET Ribosome activation by paclitaxel (Taxol) (SET Ribosome [2]; with paclitaxel Reference Standard): > 50 µM | doses inhibiting SET Ribosome activation by paclitaxel (Taxol) (SET Ribosome [2]; with paclitaxel Reference Standard, listed as CoCl2): ≥ 50 µM | IC50 (SET Ribosome [2]; with paclitaxel Reference Standard, read-out: IC50, inhibition of SET Ribosome activation by paclitaxel): ~200 µM

CCCCCCCCCCCCCC(=O)O[C@@H]1[C@@H](C)[C@@]2(O)[C@@H](C=C(CO)C[C@]3(O)C(=O)C(C)=C[C@@H]23)[C@@H]2C(C)(C)[C@]12OC(C)=O [TPA, 12-O-tetradecanoylphorbol-13-acetate]
SET Activity (day 0) (SET Ribosome [3]; HCT116 mTRdm-fLUC#17): 226.3% | SET Activity (post-growth) (SET Ribosome [3]; HCT116 mTRdm-fLUC#17): 366.0% | SET Activity (day 0) (SET Ribosome [3]; HCT116 mTRdm-fLUC#25): 336.6% | SET Activity (post-growth) (SET Ribosome [3]; HCT116 mTRdm-fLUC#25): 26,675.6% | SET Activity (day 0) (SET Ribosome [3]; HCT116 mTRdm-fLUC#28): 1,365.5% | SET Activity (post-growth) (SET Ribosome [3]; HCT116 mTRdm-fLUC#28): 20,492.8% | SET Activity (day 0) (SET Ribosome [3]; HCT116 mTRdm-fLUC#36): 875.3% | SET Activity (post-growth) (SET Ribosome [3]; HCT116 mTRdm-fLUC#36): 3,926.9% | SET Activity (day 0) (SET Ribosome [3]; HCT116 mTRdm-fLUC#47): 237.5% | SET Activity (post-growth) (SET Ribosome [3]; HCT116 mTRdm-fLUC#47): 1,434.3% | SET Activity (day 0) (SET Ribosome [3]; HCT116 mTRdm-fLUC#49): 329.4% | SET Activity (post-growth) (SET Ribosome [3]; HCT116 mTRdm-fLUC#49): 2,015.4% | SET Activity (day 0) (SET Ribosome [3]; HCT116 mTRdm-fLUC#52): 261.1% | SET Activity (post-growth) (SET Ribosome [3]; HCT116 mTRdm-fLUC#52): 920.0% | SET Activity (day 0) (SET Ribosome [3]; HCT116 mTRdm-fLUC#58): 324.4% | SET Activity (post-growth) (SET Ribosome [3]; HCT116 mTRdm-fLUC#58): 636.6% | SET Activity (day 0) (SET Ribosome [3]; HCT116 mTRdm-fLUC#75): 693.1% | SET Activity (post-growth) (SET Ribosome [3]; HCT116 mTRdm-fLUC#75): 19,413.0% | SET Activity (day 0) (SET Ribosome [3]; HCT116 mTRdm-fLUC#139): 114.8% | SET Activity (post-growth) (SET Ribosome [3]; HCT116 mTRdm-fLUC#139): 311.9% | SET Activity (day 0) (SET Ribosome [3]; HCT116 mTRdm-fLUC#156): 462.3% | SET Activity (post-growth) (SET Ribosome [3]; HCT116 mTRdm-fLUC#156): 3,673.3% | SET Activity (day 0) (SET Ribosome [3]; HCT116 mTRdm-fLUC#190): 204.4% | SET Activity (post-growth) (SET Ribosome [3]; HCT116 mTRdm-fLUC#190): 178.3% | SET Activity (day 0) (SET Ribosome [3]; HCT116 mTRdm-fLUC#220): 115.5% | SET Activity (post-growth) (SET Ribosome [3]; HCT116 mTRdm-fLUC#220): 81.8% | SET increase (SET Ribosome [4]): > 2000% | SET Response (SET Ribosome [1]): Agonist

polyoxyl 35 castor oil [cremophorEL]
Animal weight averages, day 7 ([5]; mouse, in vivo): 22.25 g | Animal weight averages, day 10 ([5]; mouse, in vivo): 22.39 g | Animal weight averages, day 13 ([5]; mouse, in vivo): 22.23 g | Animal weight averages, day 15 ([5]; mouse, in vivo): 21.60 g | Animal weight averages, day 18 ([5]; mouse, in vivo): 21.93 g | Animal weight averages, day 24 ([5]; mouse, in vivo): 21.59 g | Animal weight averages, day 31 ([5]; mouse, in vivo): 20.22 g

CC(C)C[C@@H](C=O)NC(=O)[C@H](CC(C)C)NC(=O)[C@H](CC(C)C)NC(=O)OCc1ccccc1 [MG132, Z-Leu-Leu-Leu-aldehyde] (Cbz-Leu-Leu-Leu-aldehyde)
SET Response (SET Ribosome [1]): Antagonist/; also recorded: Agonist

C[C@@H]1C[C@@H]([C@H](O)CC2CC(=O)NC(=O)C2)C(=O)[C@@H](C)C1 [cycloheximide]
IC100 (100% SET Ribosome inhibition) (SET Ribosome [6]): > 10 µM

CCCCCOC(=O)Nc1nc(=O)n([C@@H]2O[C@H](C)[C@@H](O)[C@H]2O)cc1F [capecitabine, pentyl [1-(3,4-dihydroxy-5-methyltetrahydrifuran-2-yl)-5-fluoro-2-oxo-1H-pyrimidine-4-yl]carbamate]
Animal weight averages, day 7 ([5]; mouse, in vivo): 20.88 g | Animal weight averages, day 10 ([5]; mouse, in vivo): 20.88 g | Animal weight averages, day 13 ([5]; mouse, in vivo): 20.36 g | Animal weight averages, day 15 ([5]; mouse, in vivo): 19.38 g | Animal weight averages, day 18 ([5]; mouse, in vivo): 18.50 g | Animal weight averages, day 24 ([5]; mouse, in vivo): 19.56 g | Animal weight averages, day 31 ([5]; mouse, in vivo): 21.17 g | Animal weight averages, day 35 ([5]; mouse, in vivo): 22.32 g | Animal weight averages, day 38 ([5]; mouse, in vivo): 22.99 g | spontaneous death ([5]; mouse, in vivo): one | survival mean ([5]; mouse, in vivo): 24 days | Tumor Regression during Treatment, Average [5]: 53.2% | Tumor Regression during Treatment, Mean [5]: 56% | Tumor Regression during Treatment, Average ([5]; listed as Cape): 53.2% | Tumor Regression during Treatment, Mean ([5]; listed as Cape): 56.0% | survival mean ([7]; Example 3 text on FIG. 16): 47 days | sacrifice mean ([7]; Kaplan-Meier, FIG. 16 description): 47 days | Tumor Regression during Treatment, Average [7]: 35.2% | Tumor Regression during Treatment, Mean [7]: 35.2% | Tumor Regression during Treatment, Average ([7]; listed as Cape): 29.4% | Tumor Regression during Treatment, Mean ([7]; listed as Cape): 35.2% | time of maximal metabolite concentration in the plasma ([8]; iv): 2 to 3 h

COc1ccc(C[C@H](N)C(=O)N[C@H]2[C@@H](O)[C@H](n3cnc4c(N(C)C)ncnc43)O[C@@H]2CO)cc1 [puromycin]
IC100 (100% SET Ribosome inhibition) (SET Ribosome [6]): > 25 µM

CC(C)C[C@H](NC(=O)[C@H](Cc1ccccc1)NC(=O)c1cnccn1)B(O)O [Bortezomib (Velcade), [(1R)-3-methyl-1-[[(2S)-1-oxo-3-phenyl-2-[(pyrazinylcarbonyl)amino]propyl]amino]butyl] boronic acid]
SET Response (SET Ribosome [1]; [12]): Antagonist/; also recorded: Agonist

CO[C@H]1C[C@@H]2CC[C@@H](C)[C@@](O)(O2)C(=O)C(=O)N2CCCC[C@H]2C(=O)O[C@H]([C@H](C)C[C@@H]2CC[C@@H](O)[C@H](OC)C2)CC(=O)[C@H](C)/C=C(\C)[C@@H](O)[C@@H](OC)C(=O)[C@H](C)C[C@H](C)/C=C/C=C/C=C/1C [rapamycin]
concentrations giving SET decline in TPA+Taxol treated samples (SET Ribosome [9]; [13]): ≥ 100 nM | dose up to which SET of TPA+Taxol treated samples is super-induced (SET Ribosome [9]; [13]): ≤ 50 nM | dose giving a spike in fLuc activity (SET Ribosome [9]; MCF7 TR Class 3/4 lines, rapamycin alone, 6 hours): 50 nM | doses at which the magnitude of SET is reduced but not eliminated (SET Ribosome [9]; MCF7 cells, 6 hrs): > 50 nM

O=P1(N(CCCl)CCCl)NCCCO1 (centres unmarked) [Cyclophosphamide, RS-N,N-bis(2-chloroethyl)-1,3,2-oxazaphosphinan-2-amine 2-oxide]
6 hr Post-treatment Value (bioluminescence signal intensity) (SET Ribosome [10]; IV, CremophorEL 0.5 mg/kg, paclitaxel 20 mg/kg, cyclophosphamide 120 mg/kg, average tumor size 125 mg): 38.6 ×10e6 photons and 50.4 ×10e6 photons and 101.0 ×10e6 photons and 39.3 ×10e6 photons and 82.5 ×10e6 photons and 56.8 ×10e6 photons | 6 hr Post-treatment Value (bioluminescence signal intensity) (SET Ribosome [10]; average tumor size 500 mg): 75.0 ×10e6 photons and 81.5 ×10e6 photons and 48.8 ×10e6 photons | % Induction (SET Ribosome [10]; average tumor size 125 mg): 12,866.7% *** and 381.8% and 167.2% and 13,100.0% *** and 373.3% and 18,933.3% *** | % Induction (SET Ribosome [10]; average tumor size 500 mg): 204.9% and 368.8% and 109.7% | effect on tumor growth [11]: slowed tumor growth | elimination half-life ([8]; po): 3 to 12 h | oral bioavailability ([8]; po): > 75% | dose excreted in the urine as unchanged drug [8]: 5-25%

CNc1ccc2oc(C[C@H]3O[C@@]4(CC[C@H]3C)O[C@H]([C@H](C)C(=O)c3ccc[nH]3)[C@H](C)C[C@H]4C)nc2c1C(=O)O [Calon, Calcimycin]
SET Response (SET Ribosome [1]): Antagonist; also recorded: Agonist
